Laboratory results published in US20090069320A1, “Substituted 4-Amino-Quinazoline Compounds with Metabotropic Glutamate Receptor Regulating Activity and Uses Thereof” (Gruenenthal GmbH, priority 2006, published 2009).

target: T1, mGluR5 receptor (Sus scrofa, UniProt I3LUI7); test: [3H]-MPEP mGluR5 receptor binding assay (pig brain homogenate); conditions: 10 μM compound, 5 nM [3H]-MPEP, read-out: % Inhibition of mGluR5 Receptor (pig) [^3H]-MPEP Bond at 10 μM
T1 construct: 450 μg of protein from brain homogenate with 5 nM ^3[H]-MPEP; from tissue; host or cells: pig brain halves without medulla, cerebellum and pons
Procedure: I. Method for Determining the Inhibition of the [^3H]-MPEP Bond in the mGluR5 Receptor Binding Assay
Pig brain homogenate is produced by homogenizing (Polytron PT 3000, Kinematica AG, 10 000 rpm for 90 seconds) pig brain halves without medulla, cerebellum and pons in pH 8.0 buffer (20 mM Hepes, Sigma, order no. H3375+1 complete tablet, 100 ml, Roche Diagnostics, order no. 1836145) in the ratio of 1:20 (brain weight/volume) and differential centrifuging at 900×g and 40 000×g. In incubation batches of 250 μl in 96-well microtitre plates 450 μg of protein from brain homogenate with 5 nM ^3[H]-MPEP (Tocris, order no. R1212) (MPEP=[…]) and the compounds to be examined (10 μM in test) in buffer (as above) are respectively incubated at room temperature for 60 minutes.
The batches are then filtered using a Brandel cell harvester (Brandel, Robotic 9600) on unifilter plates with fibreglass filter mats (Perkin Elmer, order no. 6005177) and then washed with buffer (as above) 3-times each with 250 μl per sample. The filter plates are then dried for 60 mins. at 55° C. Then, 30 μL of Ultima Gold™ scintillator (Packard BioScience, order no. 6013159) are added per well and after 3 hours the samples are measured on the β-counter (MicroBeta, Perkin Elmer). The non-specific binding is determined by adding 10 μM of MPEP (Tocris, order no. 1212).

T1 sequence (I3LUI7 19-1212): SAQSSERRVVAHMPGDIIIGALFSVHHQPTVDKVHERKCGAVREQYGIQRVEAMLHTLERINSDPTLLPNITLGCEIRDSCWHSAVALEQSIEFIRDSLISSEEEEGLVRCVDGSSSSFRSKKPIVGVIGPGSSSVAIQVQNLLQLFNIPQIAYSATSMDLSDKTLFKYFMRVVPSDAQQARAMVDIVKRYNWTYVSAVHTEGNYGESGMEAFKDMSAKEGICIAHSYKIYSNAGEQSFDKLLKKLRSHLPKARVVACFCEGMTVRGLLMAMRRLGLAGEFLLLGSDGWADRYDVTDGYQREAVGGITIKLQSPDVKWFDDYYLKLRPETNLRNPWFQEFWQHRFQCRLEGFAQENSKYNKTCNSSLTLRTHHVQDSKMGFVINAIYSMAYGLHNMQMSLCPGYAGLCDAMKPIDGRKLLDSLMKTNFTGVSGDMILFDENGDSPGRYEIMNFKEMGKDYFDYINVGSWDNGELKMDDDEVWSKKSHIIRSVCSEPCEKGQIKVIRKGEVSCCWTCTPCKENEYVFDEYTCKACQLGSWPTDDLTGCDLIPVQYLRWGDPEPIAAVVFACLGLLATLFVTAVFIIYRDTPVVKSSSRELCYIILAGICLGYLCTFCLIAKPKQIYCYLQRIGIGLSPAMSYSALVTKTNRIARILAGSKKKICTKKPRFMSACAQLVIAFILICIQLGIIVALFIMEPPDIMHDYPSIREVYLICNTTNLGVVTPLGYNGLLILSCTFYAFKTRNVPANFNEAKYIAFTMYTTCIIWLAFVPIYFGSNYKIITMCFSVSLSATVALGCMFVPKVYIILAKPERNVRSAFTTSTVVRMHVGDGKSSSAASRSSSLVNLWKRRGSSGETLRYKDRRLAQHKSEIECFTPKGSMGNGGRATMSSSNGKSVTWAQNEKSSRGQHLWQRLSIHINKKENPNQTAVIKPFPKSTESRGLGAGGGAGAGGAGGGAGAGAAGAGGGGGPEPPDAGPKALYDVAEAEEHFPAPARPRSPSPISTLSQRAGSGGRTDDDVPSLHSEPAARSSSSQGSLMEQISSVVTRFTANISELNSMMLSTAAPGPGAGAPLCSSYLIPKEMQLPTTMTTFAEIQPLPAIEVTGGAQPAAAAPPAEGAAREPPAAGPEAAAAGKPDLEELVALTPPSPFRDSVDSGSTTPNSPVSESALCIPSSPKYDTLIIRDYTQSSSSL

Row | Compound | inhibition at 10 µM [%]
1 | CCCN(Cc1cccc(-c2ccc3ncnc(Nc4ccccc4)c3c2)c1)C(=O)CC#N [Example 112, 2-cyano-N-[3-(4-phenylamino-quinazolin-6-yl)-benzyl]-N-propyl-acetamide] | 33
2 | CCCC(=O)N(CCC)Cc1cccc(-c2ccc3ncnc(Nc4ccccc4)c3c2)c1 [Example 115, N-[3-(4-phenylamino-quinazolin-6-yl)-benzyl]-N-propyl-butyramide] | 50
3 | CCCN(Cc1cccc(-c2ccc3ncnc(Nc4ccccc4)c3c2)c1)C(=O)c1cccs1 [Example 116, thiophene-2-carboxylic acid [3-(4-phenylamino-quinazolin-6-yl)-benzyl]-propyl-amide] | 47
4 | CCCN(Cc1cccc(-c2ccc3ncnc(Nc4ccccc4)c3c2)c1)C(=O)c1cccnc1 [Example 117, N-[3-(4-phenylamino-quinazolin-6-yl)-benzyl]-N-propyl-nicotinamide] | 68
5 | CCCN(Cc1cccc(-c2ccc3ncnc(Nc4ccccc4)c3c2)c1)C(=O)c1ccccc1Cl [Example 119, 2-chloro-N-[3-(4-phenylamino-quinazolin-6-yl)-benzyl]-N-propyl-benzamide] | 52
6 | CCCN(Cc1cccc(-c2ccc3ncnc(Nc4ccccc4)c3c2)c1)C(=O)c1ccco1 [Example 120, furan-2-carboxylic acid [3-(4-phenylamino-quinazolin-6-yl)-benzyl]-propyl-amide] | 48
7 | O=C(c1ccccc1Br)N(Cc1cccc(-c2ccc3ncnc(N4CCCC4)c3c2)c1)C1CC1 [Example 122, 2-bromo-N-cyclopropyl-N-[3-(4-pyrrolidin-1-yl-quinazolin-6-yl)-benzyl]-benzamide] | 37
8 | O=C(c1cc2ccccc2cn1)N(Cc1cccc(-c2ccc3ncnc(N4CCCC4)c3c2)c1)C1CC1 [Example 125, isoquinoline-3-carboxylic acid cyclopropyl-[3-(4-pyrrolidin-1-yl-quinazolin-6-yl)-benzyl]-amide] | 30
9 | N#CCC(=O)N(Cc1cccc(-c2ccc3ncnc(N4CCCC4)c3c2)c1)C1CC1 [Example 133, 2-cyano-N-cyclopropyl-N-[3-(4-pyrrolidin-1-yl-quinazolin-6-yl)-benzyl]-acetamide] | 50
10 | Cc1ccc(C(=O)N(Cc2cccc(-c3ccc4ncnc(N5CCCC5)c4c3)c2)C2CC2)cc1 [Example 134, N-cyclopropyl-4-methyl-N-[3-(4-pyrrolidin-1-yl-quinazolin-6-yl)-benzyl]-benzamide] | 58
11 | O=C(c1ccccc1C(F)(F)F)N(Cc1cccc(-c2ccc3ncnc(N4CCCC4)c3c2)c1)C1CC1 [Example 135, N-cyclopropyl-N-[3-(4-pyrrolidin-1-yl-quinazolin-6-yl)-benzyl]-2-trifluoromethyl-benzamide] | 32
12 | COc1ccc(C(=O)N(Cc2cccc(-c3ccc4ncnc(N5CCCC5)c4c3)c2)C2CC2)cc1 [Example 142, N-cyclopropyl-4-methoxy-N-[3-(4-pyrrolidin-1-yl-quinazolin-6-yl)-benzyl]-benzamide] | 51
13 | O=C(c1ccccc1Cl)N(Cc1cccc(-c2ccc3ncnc(N4CCCC4)c3c2)c1)C1CC1 [Example 143, 2-chloro-N-cyclopropyl-N-[3-(4-pyrrolidin-1-yl-quinazolin-6-yl)-benzyl]-benzamide] | 71
14 | O=C(COc1ccccc1)N(Cc1cccc(-c2ccc3ncnc(N4CCCC4)c3c2)c1)C1CC1 [Example 145, N-cyclopropyl-2-phenoxy-N-[3-(4-pyrrolidin-1-yl-quinazolin-6-yl)-benzyl]-acetamide] | 53
15 | CCCC(=O)N(Cc1ccccc1)Cc1cccc(-c2ccc3ncnc(NC(C)C)c3c2)c1 [Example 148, N-benzyl-N-[3-(4-isopropylamino-quinazolin-6-yl)-benzyl]-butyramide] | 40
